Key:
Assay in all cases: relative viability (nuclei count vs DMSO), 5 days (fraction); higher = more cells survive
Kobe2602 + Trametinib = compound: C1=CC(=CC=C1NC(=S)NNC2=C(C=C(C=C2[N+](=O)[O-])C(F)(F)F)[N+](=O)[O-])F [Kobe2602] + CC(=O)Nc1cccc(-n2c(=O)n(C3CC3)c(=O)c3c(Nc4ccc(I)cc4F)n(C)c(=O)c(C)c32)c1 [Trametinib] (partner 0.02 µM)
Summary of the method: (§1)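 For relative viability, nuclei counts in treated wells were divided by those in vehicle wells. Lung cancer cell lines had been pin-tool dosed in 1536-well plates the day after seeding and cultured for 5 days, then fixed and stained in one step (final 0.05% Triton X-100, 1% formaldehyde, 1 ug/ml Hoechst) and imaged at 4×. Doses were one drug alone or a fixed anchor-drug dose plus five library-drug doses (not always all listed) in √10 steps, and values are duplicate-plate medians.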

Kobe2602 + Olaparib = compound: C1=CC(=CC=C1NC(=S)NNC2=C(C=C(C=C2[N+](=O)[O-])C(F)(F)F)[N+](=O)[O-])F [Kobe2602] + O=C(c1cc(Cc2n[nH]c(=O)c3ccccc23)ccc1F)N1CCN(C(=O)C2CC2)CC1 [Olaparib] (partner 8 µM)
Summary of the method: as §1

[1] = compound: COc1cc2nccc(Oc3ccc(NC(=O)C4(C(=O)Nc5ccc(F)cc5)CC4)cc3)c2cc1OC [Cabozantinib] + C[C@@H](Oc1cc(-c2cnn(C3CCNCC3)c2)cnc1N)c1c(Cl)ccc(F)c1Cl [Crizotinib] (partner 1 µM)
Summary of the method: as §1

Kobe2602 + Lapatinib = compound: C1=CC(=CC=C1NC(=S)NNC2=C(C=C(C=C2[N+](=O)[O-])C(F)(F)F)[N+](=O)[O-])F [Kobe2602] + CS(=O)(=O)CCNCc1ccc(-c2ccc3ncnc(Nc4ccc(OCc5cccc(F)c5)c(Cl)c4)c3c2)o1 [Lapatinib] (partner 2 µM)
Summary of the method: as §1

For UMC-11, the relative viability (Kobe2602 + Trametinib; first compound 0.2 µM) was 0.716, the relative viability (Kobe2602 + Trametinib; first compound 0.6325 µM) was 0.683 and the relative viability (Kobe2602 + Trametinib; first compound 2 µM) was 0.751. It also gave a relative viability (Kobe2602 + Trametinib; first compound 6.325 µM) of 0.747, a relative viability (Kobe2602 + Trametinib; first compound 20 µM) of 0.668 and a relative viability (Kobe2602 + Olaparib; first compound 0.2 µM) of 0.404. It also gave a relative viability (Kobe2602 + Olaparib; first compound 0.6325 µM) of 1.07, a relative viability (Kobe2602 + Olaparib; first compound 2 µM) of 0.384 and a relative viability (Kobe2602 + Olaparib; first compound 6.325 µM) of 0.366. The relative viability (Kobe2602 + Olaparib; first compound 20 µM) was 1.02, the relative viability ([1]; first compound 0.02 µM) was 0.609 and the relative viability ([1]; first compound 0.06325 µM) was 0.592. For the same cell line, the relative viability ([1]; first compound 0.2 µM) was 0.717, the relative viability ([1]; first compound 0.6325 µM) was 0.668 and the relative viability ([1]; first compound 2 µM) was 0.578. It also gave a relative viability (Kobe2602 + Lapatinib; first compound 0.2 µM) of 0.696, a relative viability (Kobe2602 + Lapatinib; first compound 0.6325 µM) of 1 and a relative viability (Kobe2602 + Lapatinib; first compound 2 µM) of 0.958. For the same cell line, the relative viability (Kobe2602 + Lapatinib; first compound 6.325 µM) was 1.07 and the relative viability (Kobe2602 + Lapatinib; first compound 20 µM) was 1.12.

From the supplement of paper PMC10307832
